From patent US10751417B2, “Sustained release delivery systems comprising traceless linkers” (NOVARTIS AG, priority 2017, dated 2020)

test: Release study 8-4a: model traceless linker-drug conjugates M1-M19 held in 1×PBS at 37 °C, HPLC-UV/MS; type: physicochemical; conditions: 1 mM in 1×PBS, first order fit, rounded to nearest whole day
Experimental: 8-4a. Release Study Protocol for M1-M19 Model Traceless Linker-Drug Conjugates In Vitro
In this study a series of model traceless linker-drug conjugates, in which the drug is a low molecular weight amine-containing compound, was held in 1×PBS at 37° C. These reactions were sampled at various timepoints and analyzed to determine concentration of remaining starting compound, as well as concentration of the released amine-containing drug (p-methoxybenzylamine, 2-amino-pyridine, p-methoxyaniline, or N-methyl-p-methoxybenzylamine). Half-lives for the parent degradation and the half-lives of release for the amine-containing drug were calculated.
Method for Estimation of Amine-Containing Drug Release Rates from M1-M19
Each compound M1-M19 was prepared as a 0.1 M stock solution in DMF, as were a set of standard solutions for the released amine-containing drug (4-methoxybenzylamine, 2-aminopyridine, p-methoxyaniline, and N-methyl-p-methoxybenzylamine). A 35 μL aliquot of each solution was added to 3.465 mL of PBS to obtain 1 mM solutions of each conjugate or amine-containing drug. A 150 μL aliquot of each 1 mM solution was dispensed into LCMS vials with a polypropylene insert; 2 vials were prepared for each compound at each time point.
The vials were incubated at 37° C. At each time point (e.g., 0, 1, 5, 7, 14, 21, 28, 35, 49, and 56 days), two vials of each conjugate were removed from the incubator and frozen at −20° C. to avoid further hydrolysis. All samples were thawed and analyzed in one batch after completion of the release study using the analytical HPLC method described below. Each sample was analyzed twice. Control solutions of the amine-containing drugs were prepared prior to analysis and were analyzed as is without prior incubation at 37° C.
Analytical HPLC-MS Conditions for Study 8.4a
HPLC: Thermo Accela HPLC and Autosampler; Autosampler Tray Temperature: 8° C.; Injection Volume: 20 μL; Column: Phenomenex Kinetex C18, 2.1×50 mm, 2.6 μm. Column Temperature: Ambient; Mobile Phases: A=0.1% formic acid in water; B=0.1% formic acid in acetonitrile; Flow Rate: 200 μL/min. Gradient (time/% B): 0/0, 3/0, 10/80, 15/80, 15.1/0, 18/0.
UV: Thermo Accela PDA; Scan Range: 200-400 nm; Wavelength Step: 1 nm; Sample Rate: 20 Hz; Filter Bandwidth: 9 nm; MS: Thermo LTQ XL; Ionization Mode: ESI; Spray Voltage: 0 V at time 0-1 minutes then switched to 4 kV; Capillary Temperature: 250° C.; Divert Valve: LC eluate to waste at time 0-1 minutes then flow diverted MS; Mass Range: 120-800 Da.
The composition of the solution was evaluated at each timepoint using HPLC. Parent, intermediate and released amine-containing drug peaks were assigned by MS detection, and the relative amounts of each species were determined by integration of the peaks from the chromatogram generated using UV absorbance detection at 272 nm. The mean peak area for each compound M1-M19 on Day 0 was assigned a normalized value of 100. For the standard of the amine-containing drug being released (e.g., p-methoxybenzylamine) the mean peak area of each standard was assigned a normalized value of 100. The absolute area under curve for each species detected were compared with these values. Run-to-run peak area reproducibility was typically within 20% on strong signal and considerably worse on weak signals, so normalized signals above 100 likely correspond to values at or approaching 100 (likely 90-100, within experimental error). The percentage of parent and amine-containing drug present in the solution were calculated by dividing the relevant peak area by the mean area that was assigned a normalized value of 100 for the same species and multiplying the result by 100. The percentage of parent and amine-containing drug present in the solution was plotted versus time and the half-life of degradation for the parent and the half-life of release for the amine-containing drug were estimated using curve-fitting software assuming first order kinetics.

Calculated stability t1/2, parent (d)	SMILES
No degradation	CNC(=O)OCC1CN(C(C)=O)CCN1CC(=O)NCc1ccc(OC)cc1 (stereo not drawn) [M9, 1-(4′-acetyl-1′-(2″-((4″′-methoxybenzyl)amino)-2″-oxoethyl)piperazin-2′-yl)methyl N-methylcarbamate]
No degradation	COc1ccc(CNC(=O)CN2CCN(C(C)=O)CC2COC2CCCCO2)cc1 (stereo not drawn) [M10, 2-(4′-acetyl-2′-(((tetrahydro-2″H-pyran-2″-yl)oxy)methyl)piperazin-1′-yl)-N-(4′″-methoxybenzyl)acetamide]

same assay, conditions: 1 mM in 1×PBS, first order fit, rounded to nearest whole day, read-out: Calculated stability t1/2, parent (converted)

SMILES	half-life at 1 mM [days]
CCC(=O)OCC1CN(C(=O)CCNC(=O)OCc2ccccc2)CCN1CC(=O)NCc1ccc(OC)cc1 (stereo not drawn) [M1, (4-(3′-(((benzyloxy)carbonyl)amino)propanoyl)-1-(2″-((4″′-methoxybenzyl)amino)-2″-oxoethyl)piperazin-2-yl)methyl propionate]	37
COc1ccc(CNC(=O)CN2CCN(C(=O)CCNC(=O)OCc3ccccc3)CC2COC(C)=O)cc1 (stereo not drawn) [M2, (4-(3′-(((benzyloxy)carbonyl)amino)propanoyl)-1-(2″-((4″′-methoxybenzyl)amino)-2″-oxoethyl)piperazin-2-yl)methyl acetate]	23

Now from value to compound:

half-life at 1 mM [days]	SMILES
2	COCC(=O)OCC1CN(C(=O)CCNC(=O)OCc2ccccc2)CCN1CC(=O)NCc1ccc(OC)cc1 (stereo not drawn) [M3, (4-(3′-(((benzyloxy)carbonyl)amino)propanoyl)-1-(2″-((4″′-methoxybenzyl)amino)-2″-oxoethyl)piperazin-2-yl)methyl methoxyacetate]
2	COCC(=O)OCC1CN(C(=O)CCNC(=O)OCc2ccccc2)CCN1CC(=O)N(C)Cc1ccc(OC)cc1 (stereo not drawn) [M4, (4-(3′-(((benzyloxy)carbonyl)amino)propanoyl)-1-(2″-((4′″-methoxybenzyl)(methyl)amino)-2″-oxoethyl)piperazin-2-yl)methyl 2-methoxyacetate]
3	COCC(=O)OCC1CN(C(=O)CCNC(=O)OCc2ccccc2)CCN1CC(=O)Nc1ccc(OC)cc1 (stereo not drawn) [M5, (4-(3′-(((benzyloxy)carbonyl)amino)propanoyl)-1-(2′-((4″′-methoxyphenyl)amino)-2″-oxoethyl)piperazin-2-yl)methyl 2″″-methoxyacetate]
26	COc1ccc(CNC(=O)CN2CCN(C(C)=O)CC2COC(C)=O)cc1 (stereo not drawn) [M6, (4-acetyl-1-(2′-((4″-methoxybenzyl)amino)-2′-oxoethyl)piperazin-2-yl)methyl acetate]
3	COC(=O)C1CN(C(C)=O)CCN1CC(=O)NCc1ccc(OC)cc1 (stereo not drawn) [M7, methyl 4-acetyl-1-(2′-((4″-methoxybenzyl)amino)-2′-oxoethyl)piperazine-2-carboxylate]
35	COC(=O)OCC1CN(C(C)=O)CCN1CC(=O)NCc1ccc(OC)cc1 (stereo not drawn) [M8, (4-acetyl-1-(2′-((4″-methoxybenzyl)amino)-2′-oxoethyl)piperazin-2-yl)methyl methyl carbonate]
50	CC(=O)OCC1CN(C(C)=O)CCN1CC(=O)Nc1ccccn1 (stereo not drawn) [M17, 1-(4′-acetyl-1′-(2″-oxo-2″-(pyridin-2′″-ylamino)ethyl)piperazin-2′-yl)methyl acetate]
8	CC(=O)OCC1CN(C)CCN1CC(=O)Nc1ccccn1 (stereo not drawn) [M18, 1-(4′-methyl-1′-(2″-oxo-2″-(pyridin-2′″-ylamino)ethyl)piperazin-2′-yl)methyl acetate]
6	CCC1CCN(CC(=O)Nc2ccccn2)C(COC(C)=O)C1 (stereo not drawn) [M19, 1-(4′-ethyl-1′-(2″-oxo-2″-(pyridin-2″′-ylamino)ethyl)piperidin-2′-yl)methyl acetate]

test: Release study 8-4b: degradation of model conjugates M20-M27 in aqueous DMF:PBS at 37 °C, HPLC-UV/MS; type: physicochemical; conditions: 1 mM in 2:1 DMF:PBS, first order fit, rounded to nearest whole day
Experimental: 8-4b. M20-M27 In Vitro Release Study
In this study, a series of model traceless linker-drug conjugates M20-M27 was held in aqueous solution at 37° C. These reactions were sampled at various timepoints and analyzed to determine the concentration of remaining starting compound. The analytical method was not optimized to determine concentration of the amine-containing drug. Half-life of degradation for the parent was calculated.
Method for Estimation of Conjugate Degradation Rates for M20-M27
Each compound M20-M27 was prepared as a 0.1 M stock solution in DMF. A 35 μL aliquot of each solution was added to 3.465 mL of 2:1 DMF:PBS (for compound M24: 3:1 DMF:PBS) to obtain 1 mM solutions of each compound M20-M27. The reaction vials were held at 37° C. At each time point (e.g., 0, 1, 3, 8, 14, 21, 28, 35, 49, 56, 70, 92 days) analytical samples were prepared by collecting 150 μL from each 1 mM solution and diluting with 75 μL DMF. Two analytical samples were collected from each reaction vial at each time point and stored at 4° C. All samples were analyzed in one batch after completion of the release study. Each sample was analyzed twice using an analytical HPLC method described below.
The composition of the reaction solution was evaluated at each timepoint using HPLC. Compound M20-M27 peaks were assigned by MS detection, and the integration of the peak from the chromatogram generated using UV absorbance detection at 272 nm was determined. The mean peak area for each compound M20-M27 on Day 0 was assigned a normalized value of 100. The absolute area under the curve at each timepoint was compared with these values. Run-to-run peak area reproducibility was typically within 20% on strong signal and considerably worse on weak signals, so normalized signals above 100 likely correspond to values at or approaching 100 (likely 90-100, within experimental error). The percentage of compounds M20-M27 remaining in the solution were calculated by dividing the relevant peak area by the mean area that was assigned a normalized value of 100 and multiplying the result by 100. The percentage of compound M20-M27 present in the solution was plotted versus time and the half-life of degradation was estimated using curve-fitting software assuming first order kinetics.
Analytical HPLC-MS Conditions for Study 8.4b.
All settings the same as for analytical HPLC-MS conditions for study 8.4a except the following: Mobile Phases: A=5 mM ammonium hydroxide in water; B=5 mM ammonium hydroxide in acetonitrile; Flow Rate: 400 μL/min: Gradient (time/% B): 0/10, 0.5/10, 4/80, 8/80, 8.1/10, 12/10. Divert valve switched at 0.5 minutes after sample injection.

SMILES	Calculated stability t1/2, parent (d)
COc1ccc(CNC(=O)CN2CCN(C(=O)CCNC(=O)OCc3ccccc3)CC2CO[Si](OC(C)C)(C(C)C)C(C)C)cc1 (stereo not drawn) [M26, benzyl N-(3-(3′-(((isopropoxydiisopropylsilyl)oxy)methyl)-4′-(2″-((4′′′-methoxybenzyl)amino)-2″-oxoethyl)piperazin-1′-yl)-3-oxopropyl)carbamate]	No degradation
CCO[Si](OCC1CN(C(=O)CCNC(=O)OCc2ccccc2)CCN1CC(=O)NCc1ccc(OC)cc1)(C(C)C)C(C)C (stereo not drawn) [M27, benzyl N-(3-(3′-(((ethoxydiisopropylsilyl)oxy)methyl)-4′-(2″-((4′′′-methoxybenzyl)amino)-2″-oxoethyl)piperazin-1′-yl)-3-oxopropyl)carbamate]	No degradation

same assay, conditions: 1 mM in 2:1 DMF:PBS, first order fit, rounded to nearest whole day, read-out: Calculated stability t1/2, parent (converted)

SMILES	half-life at 1 mM [days]
CC[Si](CC)(OCC1CN(C(=O)CCNC(=O)OCc2ccccc2)CCN1CC(=O)NCc1ccc(OC)cc1)OC(C)C (stereo not drawn) [M20, Benzyl N-(3-(3′-(((diethyl(isopropoxy)silyl)oxy)methyl)-4′-(2″-((4′″-methoxybenzyl)amino)-2″-oxoethyl)piperazin-1′-yl)-3-oxopropyl)carbamate]	51
CC[Si](CC)(OCC1CN(C(=O)CCNC(=O)OCc2ccccc2)CCN1CC(=O)NCc1ccc(OC)cc1)OC1CCOCC1 (stereo not drawn) [M21]	126
CC[Si](CC)(OCCOCCOC)OCC1CN(C(=O)CCNC(=O)OCc2ccccc2)CCN1CC(=O)NCc1ccc(OC)cc1 (stereo not drawn) [M22]	23
CCOCC(C)O[Si](CC)(CC)OCC1CN(C(=O)CCNC(=O)OCc2ccccc2)CCN1CC(=O)NCc1ccc(OC)cc1 (stereo not drawn) [M23]	47
CCC(C)O[Si](CC)(CC)OCC1CN(C(=O)CCNC(=O)OCc2ccccc2)CCN1CC(=O)NCc1ccc(OC)cc1 (stereo not drawn) [M25]	80

same assay, conditions: 1 mM in 3:1 DMF:PBS (compound M24), first order fit, read-out: Calculated stability t1/2, parent (converted)

SMILES	half-life at 1 mM [days]
CC[Si](CC)(OCC(C)C)OCC1CN(C(=O)CCNC(=O)OCc2ccccc2)CCN1CC(=O)NCc1ccc(OC)cc1 (stereo not drawn) [M24]	36
